One assay deals with T1, recombinant P-selectin (Homo sapiens, UniProt P16109).
T1 construct: Recombinant ZZ-selectin (monovalent) lacking the transmembrane and cytosolic domains was produced as C-terminal chimera with the ZZ domain of protein A; made in house
T1 sequence (P16109 42-771 limits assumed): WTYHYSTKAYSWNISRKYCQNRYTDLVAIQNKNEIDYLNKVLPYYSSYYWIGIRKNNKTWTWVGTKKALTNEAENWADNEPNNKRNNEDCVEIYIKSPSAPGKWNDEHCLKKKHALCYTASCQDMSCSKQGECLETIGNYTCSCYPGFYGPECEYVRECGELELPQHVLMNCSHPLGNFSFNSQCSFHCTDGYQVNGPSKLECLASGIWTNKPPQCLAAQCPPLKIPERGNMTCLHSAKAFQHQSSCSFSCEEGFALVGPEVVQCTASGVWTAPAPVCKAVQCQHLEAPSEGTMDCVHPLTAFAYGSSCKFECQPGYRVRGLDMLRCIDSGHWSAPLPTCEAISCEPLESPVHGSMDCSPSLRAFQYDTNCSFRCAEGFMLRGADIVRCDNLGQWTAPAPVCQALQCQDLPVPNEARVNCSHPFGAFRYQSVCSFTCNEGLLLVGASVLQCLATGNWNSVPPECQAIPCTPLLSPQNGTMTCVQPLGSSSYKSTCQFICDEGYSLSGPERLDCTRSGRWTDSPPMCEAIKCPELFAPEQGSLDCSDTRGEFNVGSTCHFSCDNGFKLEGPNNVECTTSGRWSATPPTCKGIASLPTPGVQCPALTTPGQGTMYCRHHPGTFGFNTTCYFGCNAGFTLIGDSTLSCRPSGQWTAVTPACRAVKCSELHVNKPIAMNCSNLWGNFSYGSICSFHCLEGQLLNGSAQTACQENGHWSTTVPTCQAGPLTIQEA
Put plainly: In vitro assay for inhibition of P-selectin binding (HSO3Le^a-PAA-biotin binding to immobilized recombinant selectin). The note with it: for inhibition of recombinant P-selectin in the cell-free assay: result in words. The text has this:
The in vitro test-system is based on the inhibition of HSO3Le^a-PAA-biotin binding to recombinant P-selectin. For details, see example 1.
All PAA-based neoglycoconjugates were from 30 to 40 kDa and obtained according to standard methods (Gordeeva, E. A., Tuzikov, A. B., Galanina, O. E., Pochechueva, T. V. & Bovin, N. V. (2000). Microscale synthesis of glycoconjugate series and libraries. Anal. Biochem. 278, 230-232; Bovin, N. V., Korchagina, E. Yu., Zemlyanukhina, T. V., Byramova, N. E., Galanina, O. E., Zemlyakov, A. E., Ivanov, A. E., Zubov, V. P., and Mochalova, L. V. (1993) Synthesis of polymeric neoglycoconjugates based on N-substituted polyacrylamide. Glycoconj. J. 10, 142-151). sTyr-PAA (containing 80 mol % sTyr) was synthesized using 200% excess of sTyr in relation to the activated polymer. The degree of sTyr substitution was determined by the conjugate's increase in weight. Recombinant ZZ-selectin (monovalent) lacking the transmembrane and cytosolic domains was produced as C-terminal chimera with the ZZ domain of protein A (Priest, R., Nawaz, S., Green, P. M., and Bird, M. I. (1995). Adhesion of eosinophils to E- & P-selectin. Biochem. Soc. Trans. 23, 162S). Tripeptide Tyr-Tyr-Tyr (Bachem, Germany) and aminoglucitol (Sigma) were per-O-sulfated with SO3/Py complex (Field, R. A., Otter, A., Fu, W., Hindsgaul, O. Carbohydr. Res. 1995, 276, 347-363). Fucoidan was purchased from Sigma (USA).
The assay was performed on 96-Well plates. Human IgG was used as a primary coating reagent to immobilize recombinant selectin via the ZZ-domain of the fusion protein. The working concentration of selectin was 3 ng/well. […] Details of this assay were published in (Game, S. M., Rajapurohit, P. K., Clifford, M., Bird, M. I., Priest, R., Bovin, N. V., Nifant'ev, N. E., O'Beime, G., and Cook, N. D. (1998) Scintillation proximity assay for E-, P-, and L-selectin utilizing polyacrylamide-based neoglycoconjugates as ligands. Anal. Biochem. 258, 127-135; Tatyana V. Pochechueva, Oxana E. Galanina, Michael I. Bird, Nikolay E. Nifant'ev, Nicolai V. Bovin. Assembly of P-Selectin Ligands on a Polymeric Template, Chem&Biol, Vol. 9, 2002, p. 757-762; Natalia Ushakova, Marina Preobrazhenskaya, Mike I. Bird, Richard Priest, A. V. Semenov, A. V. Mazurov, Nikolay Ni-fant'ev, Tatyana Pochechueva, Oxaha Galanina, Nicolai Bovin. Monomeric and Multimeric Blockers of Selectins: Comparison of In Vitro and In Vivo Activity/Biol. Chem. Hoppe Seyler, 2002 submitted).

A further assay deals with T2, P-selectin (Homo sapiens, UniProt P16109).
T2 sequence (P16109 42-830): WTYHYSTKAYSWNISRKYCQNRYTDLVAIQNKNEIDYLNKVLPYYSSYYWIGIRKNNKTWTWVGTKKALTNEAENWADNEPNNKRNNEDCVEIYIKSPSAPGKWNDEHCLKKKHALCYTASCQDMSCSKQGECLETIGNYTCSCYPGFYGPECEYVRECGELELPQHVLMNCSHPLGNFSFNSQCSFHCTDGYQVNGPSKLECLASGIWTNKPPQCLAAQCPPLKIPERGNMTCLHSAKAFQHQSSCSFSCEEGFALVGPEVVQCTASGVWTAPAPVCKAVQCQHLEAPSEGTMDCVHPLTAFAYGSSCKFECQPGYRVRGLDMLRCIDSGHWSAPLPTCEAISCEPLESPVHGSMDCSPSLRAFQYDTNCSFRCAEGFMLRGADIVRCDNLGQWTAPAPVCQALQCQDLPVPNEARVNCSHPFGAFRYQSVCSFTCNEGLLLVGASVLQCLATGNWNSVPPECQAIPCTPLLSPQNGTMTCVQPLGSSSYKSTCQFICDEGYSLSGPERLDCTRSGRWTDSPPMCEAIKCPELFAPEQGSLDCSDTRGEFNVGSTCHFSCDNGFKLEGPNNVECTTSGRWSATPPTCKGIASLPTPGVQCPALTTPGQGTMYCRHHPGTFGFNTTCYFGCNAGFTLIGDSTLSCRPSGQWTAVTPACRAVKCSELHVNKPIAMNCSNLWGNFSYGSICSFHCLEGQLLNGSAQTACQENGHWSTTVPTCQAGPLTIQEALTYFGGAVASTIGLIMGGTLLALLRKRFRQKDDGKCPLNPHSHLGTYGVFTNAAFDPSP
The note with it: cited from earlier work.

The test system of assay [1] is Peptone-induced acute rat peritonitis. Kind of assay: Rat peritoneal inflammation model (peptone-induced acute peritonitis, neutrophil extravasation). Type of assay: in vivo. The protocol:
Acute rat peritonitis was induced as described in (Preobrazhenskaya, M. E., Berman, A. E., Mikhailov, V. I., Ushakova, N. A., Mazurov, A. V., Semenov, A. V., Usov, A. I., Nifant'ev, N. E., and Bovin, N. V. (1997) Fucoidan inhibits leukocyte recruitment in a model peritoneal inflammation in rat and blocks interaction of P-selectin with its carbohydrate ligand. Biochem. Mol. Biol. Int 43, 443-451) with some modifications. 10 ml of PBS containing 10% peptone was injected intraperitoneally into female Wistar rats (180-220 g). After 3 h rats were sacrificed and their peritoneal cavities were laved with 30 ml PBS containing 60 units/ml of heparin, 0.02% EDTA and 0.03% bovine serum. The total cell number in the lavage was counted and the cell suspension was concentrated by centrifugation at 400 g for 10 min. After 1:1 dilution with bovine serum smears were prepared and stained according to the Pappenheim method. Neutrophils were counted on two parallel slides and the total neutrophil number was calculated. The inhibitors were administered intravenously as a single dose in 0.3 ml sterile 0.9% NaCl 15 min after peptone injection. The same volume of NaCl solution Was injected into control animals. A difference between the control and tested groups was analyzed for statistical significance based on Student's t-test, p-values<0.05 were considered to be significant.
Peptone-induced acute rat peritonitis was characterized by neutrophil extravasation into the peritoneal cavities. […] A natural ligand such as recombinant PSGL-1 acts in a dose of about 1 mg/kg (S. P. Khor, K. McCarthy, M. Dupont, K. Murray, G. Timony. Pharmacokinetics, pharmacodynamics, allometry, and dose selection of rPSGL-Ig for phase I trial. J. Pharmacol. Exp. Ther., 293, 618-624 (2000); R. Hayward, B. Campbell, Y. K. Shin, R. Scalia, A. M. Lefer. Recombinant soluble P-selectin glycoprotein ligand-1 protects against myocardial ischemic reperfusion injury in cats. Cardiovascular Res., 41, 65-76 (1999)) which approaches the fucoidan activity under study. […]

In the next assay the test system is yield of neutrophils. Conditions: mouse; Cecconi et al. 1994; cited from earlier work.
The mark [2] stands for this setting: inhibition of HSO3Le^a-PAA-biotin binding with P-selectin, means of at least triplicate determinations.

pIC50: −log10 of the molar value. Where two headings read alike, the source gives them in different places.

For `CC(=O)NC1C(O)OC(CO)C(OC2OC(C)C(O)C(O)C2O)C1OC1OC(CO)C(O)C(OS(=O)(=O)O)C1O` (centres unmarked) [HSO3Le^a, 3′-HSO3Galβ1-3(Fucα1-4)GIcNAc], the “IC50, μM” value at recombinant P-selectin (setting [2]) is on record as “Nl”.

Regarding Hexa-O-sulfo-aminoglucitol, on recombinant P-selectin (setting [2]), the “IC50, μM” value is “Nl”. In addition, the “inhibition of recombinant P-selectin in the cell-free assay” value on recombinant P-selectin was “unable to inhibit”.

`N[C@@H](Cc1ccc(OS(=O)(=O)O)cc1)C(=O)O` [sTyr, tyrosine-O-sulfate]: the “IC50, μM” value at recombinant P-selectin (setting [2]) is on record as “Nl”.

Regarding “3-0-sulfated galactocerebroside [sulfatide]”, the pIC50 (as a rule, −log10 of the IC50, conventionally taken in molar units) on P-selectin (Marinier et al. 1997, sulfatide and some of its synthetic analogues) is 6.00 to 7.00.

For the compound “Tripeptide Tyr-Tyr-Tyr per-O-sulfated with SO3/Py complex [sTyr-sTyr-sTyr]”, on recombinant P-selectin (setting [2]), the “IC50, μM” value is on record as “Nl”. The “inhibition of recombinant P-selectin in the cell-free assay” value at recombinant P-selectin is “unable to inhibit”.

Fucoidan: the pIC50 on recombinant P-selectin (setting [2]) is 7.00; on P-selectin (Pochechueva et al., Ley et al. 1993, repeating hexasaccharide units) it was 7.00. Moreover, on recombinant P-selectin (inhibition of HSO3Le^a-PAA-biotin binding with P-selectin, weight concentration), the IC50 in weight result is “(100 ng/ml)^2”. For the same compound, the “Mean inhibition (% to control)” value in assay [1] (Series 2, 1.0 mg per rat i.v.) is on record as 92 (p < 0.001) %. In addition, the “Number of neutrophils per rat × 10^−6” value in assay [1] (Series 2, 1.0 mg per rat i.v., mean ± SEM) is reported as 2.5 ± 0.5 × 10^−6. In assay [1] (result in words), the “blocking of the inflammation process” value is reported as “definitely blocked the inflammation process”.

For `O=P(O)(O)O[C@H]1[C@H](OP(=O)(O)O)[C@@H](OP(=O)(O)O)[C@H](OP(=O)(O)O)[C@@H](OP(=O)(O)O)[C@H]1OP(=O)(O)O` [Inositol hexaphosphate], the “dose inhibiting the yield of neutrophils (almost half of them)” value with yield of neutrophils is on record as “about 70 mg/kg”.

The record behind these values is patent US20050214248A1, “Non-glycosylated polyacrylamide conjugates and their use for cytoprotection” (University of Bern, priority 2002, published 2005).
